The target of test [1] is T1, angiotensin-induced vasoconstriction (rabbit aorta) (Oryctolagus cuniculus, UniProt P34976).
T1 construct: The thoracic aortas were removed and cleaned of excess fat and connective tissue; from tissue; host or cells: thoracic aorta rings of New Zealand white rabbits (animals from Hazelton)
T1 sequence (P34976 1-359): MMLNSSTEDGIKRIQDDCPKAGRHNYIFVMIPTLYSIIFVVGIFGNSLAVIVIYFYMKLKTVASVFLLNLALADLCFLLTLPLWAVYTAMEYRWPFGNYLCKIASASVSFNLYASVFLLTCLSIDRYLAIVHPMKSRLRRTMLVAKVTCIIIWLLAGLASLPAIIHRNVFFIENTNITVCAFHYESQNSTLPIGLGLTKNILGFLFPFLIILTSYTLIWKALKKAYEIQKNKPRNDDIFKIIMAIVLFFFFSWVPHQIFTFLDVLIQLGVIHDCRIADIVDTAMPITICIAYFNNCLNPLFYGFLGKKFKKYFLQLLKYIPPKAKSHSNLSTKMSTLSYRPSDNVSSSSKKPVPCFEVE
As to the kind of experiment: Rabbit Aorta Test System: antagonism of angiotensin II contraction of aortic rings. The arrangement: species or system New Zealand white rabbits. Conditions: contraction to AII 10^-10 to 10^-7 M, 30 minutes incubation with compound; pA2 = -log KB. The method, then: (§1) As previously discussed, the compounds of Formula I are potent effective antagonists of angiotensin II. The ability of representative compounds of Formula I to block angiotensin II receptor binding was determined using the adrenal glomerulosa assay. The ability to antagonize angiotensin-induced vasoconstriction was evaluated in the rabbit aorta test system.
New Zealand white rabbits (Hazelton, 2-3 kg) were sacrificed by cervical dislocation. The thoracic aortas were removed and cleaned of excess fat and connective tissue. Rings of tissue (3 mm wide) were mounted in 10 ml tissue baths between 2 L-shaped stainless steel hooks. The lower hook was attached to a stationary rod. The upper hook was attached to a force displacement transducer (Grass model FT.03). The bath chambers were maintained at 37° C., aerated with 95% 02 /5% C02, and contained physiological solution of the following composition (mM): NaCl, 117; glucose, 5.6; NaH2 PO4, 1.0; MgS04, 0.7; KCl, 5.2; CaCl2, 1.8; NaHCO3, 26; and phentolamine HCl, 0.003.
Rings were equilibrated for 1 hour with 2 g of tension. During the equilibration period, the tissues were washed by overflow every 15 minutes. Rings were then exposed to 10^-8 M angiotensin II (AII) and were allowed to contract until a steady state was reached. Tissues were then washed every 15 minutes for 1 hour. This was repeated every hour until the AII response stabilized. A cumulative concentration response curve to AII (10^-10 to 10^-7 M) was then obtained. At the conclusion of the concentration response curve, tissues were washed every 2 minutes until baseline tension was reached, then every 15 minutes for 30 minutes. Compounds were added in a volume of 10 μl DMSO and allowed to incubate for 30 minutes before repeating the concentration response curve to AII. Contractions to AII were expressed as a percent of the maximum contraction obtained in the control curve (the first AII concentration response curve). EC50 's (concentration that contracted the tissues to 1/2 the control maximum) for each curve were calculated using a 4 parameter logistics model (NonLin, SAS Institute). Potency data for each compound tested are expressed as the pA2 (defined as-log KB, where KB =[molar concentration of antagonist]/[(EC50 AII with antagonist/EC50 AII without antagonist)-1]).

The target of test [2] is angiotensin II receptor (adrenal membranes). As to the kind of experiment: Adrenal Glomerulosa Test System: binding of I^125-angiotensin II to adrenal membranes. Conditions: displacement of 0.1 nM I^125-angiotensin II, rat adrenal membranes, 90 minutes, room temperature; KI by Cheng Prusoff equation; read-out: Adrenal Glomulosa (KI). The protocol: as §1
Binding of I^125 -angiotensin II to adrenal membranes was routinely carried out in 96-well filtration plates. Adrenal membranes were prepared from the capsular portion (glomerulosal layer attached) of rat adrenal glands by differential centrifugation. Briefly, capsules were homogenized in a solution containing sucrose, 250 mM; MgCl2, 1 mM; and tris, 5 mM at pH 7.5 and 4° C. using a polytron at setting 5 for 20 seconds. The homogenate was stirred, gently, for 15 minutes at 4° C. and then centrifuged 10 minutes, at 1000×g, 4° C. The supernatant was centrifuged 30 minutes, at 30,000×g, 4° C., and the resulting pellet resuspended in 50 mM tris. Membrane preparations were stored in aliquots at -70° C. until used. Binding of I^125 -angiotensin II to adrenal membranes was performed at room temperature for 90 minutes in 96-well plates containing a hydrophilic polyvinylidene fluoride membrane (0.45 μm, Millipore-GV multiscreen). Each 250 μincubate contained the following (final concentration): tris, 50 mM; NaCl, 120 mM; MgCl2, 5 mM; dithiothrietol 1 mM; bovine serum albumin, 0.05%; I^125 -angiotensin II, 0.1 nM; and adrenal membrane protein, 8-15 μg. Antagonists were added in concentrations from 10 nM to 100 μM. Non-specific binding was measured in the presence of 0.1 μM Sar1, Ile8 angiotensin II.
Binding was terminated by vacuum filtration. Receptor-ligand complex trapped on filters was washed 3 times with 300 μl ice-cold wash solution (tris, 50 mM; NaCl, 120 mM; MgCl2, 5 mM; dithiothrietol, 1 mM). Filter discs were dried, punched out and counted in a gamma counter at 52% efficiency. Specific binding represented 96% of total binding (approximately 150 fmol angiotensin II/mg protein). The molar concentration (IC50) of the inhibitor that displaced 50% of the binding of I^125 angiotensin II for each compound was calculated using a 4 parameter logistics model (NonLin, SAS Institute). Data are expressed as KI calculated using the Cheng Prusoff equation. See Cheng et al. Biochem. Pharmacol. 22: 3099 (1973).

What is called Kb is the affinity of an antagonist, worked out from how it opposes an agonist. As usually defined, the Ki is the equilibrium dissociation constant of an inhibitor or competing ligand from its target. Consider `CCCCCCC(C(=O)NCC(F)(F)F)n1cnc(NC(=O)c2ccccc2S(=O)(=O)O)c1` (centres unmarked) [Example 3, N-(2,2,2-Trifluoroethyl)-2-[4-(2-sulfobenzoyl)amino-1H-imidazol-1-yl]octanoamide], for which the Kb in test [1] was 3980 nM. In test [2], the inhibition constant Ki was 9600 nM.
The matching figures for `CCCCCCC(C(=O)NCCC)n1cnc(NC(=O)c2ccccc2S(=O)(=O)O)c1` (centres unmarked) [Example 2, N-Propyl-2-[4-(2-sulfobenzoyl)amino-1H-imidazol-1-yl]octanoamide]: 794 nM and 8200 nM.
In the case of `CCCCCCC(C(=O)Nc1ccccc1C(=O)O)n1cnc(NC(=O)c2ccccc2S(=O)(=O)O)c1` (centres unmarked) [Example 9, N-(2-Carboxyphenyl)-2-[4-(2-sulfobenzoyl)amino-1H-imidazol-1-yl]octanoamide], the Kb in test [1] was 251 nM. Moreover, the Ki in test [2] turned out to be 12400 nM.
For the compound `CCCCCCC(C(=O)Nc1ccccn1)n1cnc(NC(=O)c2ccccc2S(=O)(=O)O)c1` (centres unmarked) [Example 7, N-(2-Pyridyl)-2-[4-(2-sulfobenzoyl)amino-1H-imidazol-1-yl]octanoamide], the Kb in test [1] was 1580 nM. Besides, in test [2], the Ki came out at 6800 nM.
For `CCCCCCC(C(=O)Nc1ccccc1O)n1cnc(NC(=O)c2ccccc2S(=O)(=O)O)c1` (centres unmarked) [Example 8, N-(2-Hydroxyphenyl)-2-[4-(2-sulfobenzoyl)amino-1H-imidazol-1-yl]octanoamide] the same measures were 1580 nM and 13000 nM.
As to `CCCCCCC(C(=O)N1CCNC1=O)n1cnc(NC(=O)c2ccccc2S(=O)(=O)O)c1` (centres unmarked) [Example 5, 2-[[[1-[1-[(2-oxo-1-imidazolidinyl)carbonyl]heptyl]-1H-imidazol-4-yl]amino]carbonyl]benzenesulfonic acid], the antagonist dissociation constant (Kb) in test [1] is 501 nM. Moreover, in test [2], the Ki came to 178000 nM.
Turning to `CCCCCCC(C(=O)NC(C)(C)CO)n1cnc(NC(=O)c2ccccc2S(=O)(=O)O)c1` (centres unmarked) [Example 4, N-[2-(1-Hydroxy-2-methyl)propyl]-2-[4-(2-sulfobenzoyl)amino-1H-imidazol-1-yl]octanoamide], the Kb in test [1] was 1000 nM. Further, the Ki in test [2] came to 12100 nM.
Turning to `CCCCCCC(C(=O)O)n1cnc(NC(=O)c2cccc(O)c2S(=O)(=O)O)c1` (centres unmarked) [Example 10, 2-[4-(3-Hydroxy-2-sulfobenzoyl)amino-1H-imidazol-1-yl]octanoic acid], in test [1], the Kb is 63.1 nM. Moreover, in test [2], the Ki is 2930 nM.
For `CCCCCC[C@H](C(=O)N1C[C@@H](Oc2ccc(OP(=O)(O)O)cc2)C[C@H]1C(=O)O)n1cnc(NC(=O)c2ccccc2S(=O)(=O)O)c1` [Example 43], the antagonist dissociation constant (Kb) in test [1] is 0.794 nM.
`CCCCCCC(C(=O)NCC)n1cnc(NC(=O)c2ccccc2S(=O)(=O)O)c1` (centres unmarked) [Example 1, N-Ethyl-2-[4-(2-sulfobenzoyl)amino-1H-imidazol-1-yl]octanoamide]: the antagonist equilibrium constant (Kb) in test [1] was 2000 nM. Moreover, the Ki in test [2] is 10300 nM.
Consider `CCCCCC[C@H](C(=O)N1C[C@@H](Oc2ccc(CC(=O)O)cc2)C[C@H]1C(=O)O)n1cnc(NC(=O)c2cccc(O)c2C(=O)O)c1` [Example 86], for which, in test [1], the Kb was 0.794 nM.
Turning to `CCCCCC[C@H](C(=O)N1C[C@@H](Oc2ccc(C(C)(C)C)cc2)C[C@H]1C(=O)O)n1cnc(NC(=O)c2ccccc2S(=O)(=O)O)c1` [Example 25], the Kb in test [1] was 126 nM.
In the case of `CCCCCC[C@H](C(=O)N1C[C@@H](Oc2ccc(CCC(=O)O)cc2)C[C@H]1C(=O)O)n1cnc(NC(=O)c2ccccc2S(=O)(=O)O)c1` [Example 37], in test [1], the Kb is 0.398 nM.
Take `CCCCCC[C@H](C(=O)N1C[C@@H](Oc2ccc3ccc(C(=O)O)cc3c2)C[C@H]1C(=O)O)n1cnc(NC(=O)c2ccccc2S(=O)(=O)O)c1` [Example 63]: in test [1], the Kb is 1.58 nM.

The record behind these values is patent US5484780A, “Angiotensin II antagonists” (Eli Lilly and Company, priority 1994, dated 1996).
